Results taken from the NIST ThermoML archive (doi:10.1021/je5003779).

Tests used:
[1] = refractive index (other wavelength) (dimensionless); settings: 101.3 kPa, Liquid, Wavelength=632.8 nm, Standard Abbe refractometry
[2] = refractive index (other wavelength) (dimensionless); xn = mol fraction of the nth substance listed; settings: 296.27 K, 101 kPa, Liquid, Wavelength=632.8 nm, Standard Abbe refractometry
[3] = heat capacity at constant pressure per volume; xn = mol fraction of the nth substance listed; settings: 101 kPa, Liquid, Differential Scanning Calorimeter, x1 = 0.133

CCn1cc[n+](C)c1.O=S(=O)([N-]S(=O)(=O)C(F)(F)F)C(F)(F)F
[1]
Settings	refractive index
285.03 K	1.4252
287.17 K	1.4246
288.97 K	1.4242
290.28 K	1.4238
291.11 K	1.4236
292.19 K	1.4233
293.16 K	1.423
294.21 K	1.4227
295.18 K	1.4225
297.26 K	1.4219

CCCO [propan-1-ol] + CCn1cc[n+](C)c1.O=S(=O)([N-]S(=O)(=O)C(F)(F)F)C(F)(F)F
Settings	refractive index
[2], x2 = 0	1.3823

CCn1cc[n+](C)c1.O=S(=O)([N-]S(=O)(=O)C(F)(F)F)C(F)(F)F + CCCO
Settings	heat capacity [J/K/m3]	refractive index
[2], x1 = 0.021	–	1.3854
[2], x1 = 0.056	–	1.3896
[2], x1 = 0.097	–	1.3935
[2], x1 = 0.142	–	1.3971
[2], x1 = 0.149	–	1.3977
[2], x1 = 0.192	–	1.4006
[2], x1 = 0.243	–	1.4036
[2], x1 = 0.306	–	1.4064
[2], x1 = 0.397	–	1.4099
[2], x1 = 0.502	–	1.4131
[2], x1 = 0.699	–	1.4174
[2], x1 = 0.855	–	1.4199
[2], x1 = 1	–	1.4222
[3], 295 K	2448000	–
[3], 296 K	2164000	–
[3], 297 K	2118000	–
[3], 298 K	2122000	–
[3], 299 K	2105000	–
[3], 300 K	2103000	–
[3], 301 K	2101000	–
[3], 302 K	2082000	–
[3], 303 K	2087000	–
[3], 304.01 K	2092000	–
[3], 305 K	2090000	–
[3], 306 K	2090000	–
[3], 307 K	2094000	–
[3], 308 K	2095000	–
[3], 309 K	2098000	–
[3], 310 K	2097000	–
[3], 311 K	2098000	–
[3], 312 K	2102000	–
[3], 313 K	2103000	–
[3], 314 K	2103000	–
[3], 315 K	2108000	–
[3], 316 K	2108000	–
[3], 317 K	2111000	–
[3], 318 K	2113000	–
[3], 319 K	2114000	–
[3], 320 K	2117000	–
[3], 321 K	2117000	–
[3], 322 K	2121000	–
[3], 323 K	2124000	–
[3], 324 K	2125000	–
[3], 325 K	2124000	–
[3], 326 K	2129000	–
[3], 327 K	2131000	–
[3], 328 K	2133000	–
[3], 329.01 K	2135000	–
[3], 330 K	2134000	–
[3], 331 K	2139000	–

CCCO [propan-1-ol]
[1]
Settings	refractive index
284.73 K	1.387
286.91 K	1.3861
288.21 K	1.3856
289.24 K	1.3851
290.26 K	1.3847
291.26 K	1.3843
292.59 K	1.3837
293.69 K	1.3833
296.27 K	1.3823
